Usually IC50 stands for the point on the concentration scale where inhibition reaches its midpoint. The melting point is the temperature of the solid-liquid transition.

From patent US11052092B2, “N-{[2-(piperidin-1-yl)phenyl](phenyl)methyl}-2-(3-oxo-3,4-dihydro-2H-1,4-benzoxazin-7-yl)acetamide derivatives and related compounds as ROR-gamma modulators for treating autoimmune diseases” (Genfit, priority 2017, dated 2021) come the findings set out here.

Series [1] deals with T1, human RORγt (Homo sapiens, UniProt P51449).
T1 construct: the full-length cDNA of human RORγt; expressed in transfected cells; host or cells: COS-7 (monkey kidney)
T1 sequence (P51449 1-497 isoform P51449-2): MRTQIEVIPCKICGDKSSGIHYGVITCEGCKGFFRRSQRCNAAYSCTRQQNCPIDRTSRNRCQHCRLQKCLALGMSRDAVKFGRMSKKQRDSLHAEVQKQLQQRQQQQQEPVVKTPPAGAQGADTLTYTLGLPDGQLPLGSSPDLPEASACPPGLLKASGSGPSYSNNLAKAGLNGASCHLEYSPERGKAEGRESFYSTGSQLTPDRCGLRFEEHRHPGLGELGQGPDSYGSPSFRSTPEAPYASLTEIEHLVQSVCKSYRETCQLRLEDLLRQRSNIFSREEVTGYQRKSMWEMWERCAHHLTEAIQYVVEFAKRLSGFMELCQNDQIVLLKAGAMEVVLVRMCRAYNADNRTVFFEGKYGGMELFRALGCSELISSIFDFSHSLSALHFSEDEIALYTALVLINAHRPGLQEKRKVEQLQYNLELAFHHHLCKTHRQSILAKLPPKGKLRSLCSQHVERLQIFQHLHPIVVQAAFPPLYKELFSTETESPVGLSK
The experiment in a line: RORE Luciferase/RORγt transactivation assay. It counts as cell-based. Particulars: COS-7 cells transfected with human IL-17 promoter luciferase reporter and RORγt plasmid; 20 h with compound; read-out: IC50, RORγt activity inhibition. Put shortly: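 COS-7 cells were transiently co-transfected with a human IL-17 promoter (RORE/CNS)–luciferase reporter and a RORγt expression plasmid, then seeded at 10000 cells/well in serum-free, phenol red-free DMEM. Compounds were added at 0.3% DMSO final. Luciferase was read with Steady-Glo, and IC50 and Emax were derived.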

Series [2] concerns Murine EL-4 lymphoma cell line overexpressing human RORγt. The series can be described thus: IL-17 secretion from EL4 murine lymphoma. In kind it is cell-based. The following applies: Mus musculus; human RORγt-transfected EL4 cells, PMA (10 ng/mL) and ionomycin (1 μM), 24 h; read-out: IC50, IL-17 secretion inhibition. Put shortly: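 EL-4 cells electroporated with hRORγt plasmid, seeded at 150000 cells/well and pretreated with compound for 24 h, then stimulated with PMA (10 ng/mL) plus ionomycin (1 μM final) with compound for a further 24 h at 37 °C. IL-17 in supernatant measured by HTRF or ELISA.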

The target in series [3] is T2, RORγt ligand-binding domain (RORγt-LBD) (Homo sapiens, UniProt P51449).
T2 construct: 20 nM recombinantly expressed RORγ-LBD fused to GST
T2 sequence (P51449 269-508 limits assumed): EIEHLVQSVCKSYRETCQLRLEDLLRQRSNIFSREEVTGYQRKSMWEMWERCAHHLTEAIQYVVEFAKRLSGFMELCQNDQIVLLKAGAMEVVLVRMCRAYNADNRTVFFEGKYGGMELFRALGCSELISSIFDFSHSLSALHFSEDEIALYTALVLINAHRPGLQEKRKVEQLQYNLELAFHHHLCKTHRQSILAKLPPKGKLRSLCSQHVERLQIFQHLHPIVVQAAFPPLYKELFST
The series can be described thus: Time-resolved FRET (TR-FRET) RORγt coactivator assay. Particulars: GST-RORγ-LBD, biotinylated RIP140 peptide, 2 hours at room temperature. From the text:
Time-resolved FRET (TR-FRET) RORγt coactivator assay was used to identify RORγ modulator compounds with ligand-dependent coactivator displacement. The assay uses a d2-labeled anti-GST antibody, synthetic N-terminally biotinylated peptide which is derived from nuclear receptor coactivator protein RIP140, and a RORγt ligand-binding domain (RORγt-LBD) that is tagged with glutathione-S-transferase (GST). The influence of compounds on the RORγ-peptide interaction relies on the binding dependent energy transfer from a donor to an acceptor fluorophor attached to the binding partner of interest. […] For reduction of background from compound fluorescence, TR-FRET method makes use of generic fluorophore labels and time resolved detection.
The assays were done in a final volume of 20 μl in a 384 well plate in a CHAPS buffer (2 mM CHAPS; 1 mM DTT, 2 mM EDTA; 0.1% BSA), containing 20 nM recombinantly expressed RORγ-LBD fused to GST, 30 nM N-terminally biotinylated peptide, 1 nM streptavidin-terbium conjugate and 20 nM d2 labeled-anti-GST. Test compounds were diluted using 10 mM stock solution. The range of the final compound concentrations used in this test was from 0.3 nM to 30 μM (logarithmic scale). DMSO content of the samples was kept at 1%. The assay was equilibrated for 2 hours in the dark at room temperature in 384 well plates (Falcon). The signal was detected by an Ultra384 reader (TECAN). […] Compounds that promote coactivator displacement induce a concentration-dependent decrease in time-resolved fluorescent signal. Data were collected and analyzed using GraphPad Prism software (GraphPad Software V5.02, San Diego Calif. USA). IC50 in μM and Emax in % were reported for each compound.
On the technique in general: Time-resolved FRET reads energy transfer from a long-lived donor to a nearby acceptor.

Structures are written as SMILES. Values joined by “and” are separate entries in the source; they are usually repeats but may differ in a detail not shown here. Equal entries are not always repeated.

On to `Cc1ccc(C(NC(=O)Cc2ccc3c(c2)OCC(=O)N3)c2ccccc2)c(N2CCCCC2)c1` (stereo not drawn) [Cpd. 1, N-{[4-methyl-2-(piperidin-1-yl)phenyl](phenyl)methyl}-2-(3-oxo-3,4-dihydro-2H-1,4-benzoxazin-7-yl)acetamide], for which the IC50 in series [1], in series [2] and in series [3] was 100 to 1000 nM throughout.
For the molecule `Cc1ccc(C(NC(=O)Cc2ccc3c(c2)OCC(=O)N3)c2ccccc2)c(N2CCOCC2)c1` (stereo not drawn) [Cpd. 2, N-{[4-methyl-2-(morpholin-4-yl)phenyl](phenyl)methyl}-2-(3-oxo-3,4-dihydro-2H-1,4-benzoxazin-7-yl)acetamide], the figures for the IC50 in series [1], in series [2] and in series [3] were 1000 to 10000 nM, > 10000 nM and 10 to 100 nM, respectively.
In the case of `O=C1COc2cc(CC(=O)NC(c3ccccc3)c3ccccc3N3CCCCC3)ccc2N1` (stereo not drawn) [Cpd. 3, 2-(3-oxo-3,4-dihydro-2H-1,4-benzoxazin-7-yl)-N-{phenyl[2-(piperidin-1-yl)phenyl]methyl}acetamide], the half-maximal inhibitory concentration (IC50) in series [1] was in the range of 1000 to 10000 nM; in series [2], 1000 to 10000 nM; in series [3], 100 to 1000 nM.
As to `COc1ccc(C(NC(=O)Cc2ccc3c(c2)OCC(=O)N3)c2ccccc2)c(N2CCCCC2)c1` (stereo not drawn) [Cpd. 4, N-{[4-methoxy-2-(piperidin-1-yl)phenyl](phenyl)methyl}-2-(3-oxo-3,4-dihydro-2H-1,4-benzoxazin-7-yl)acetamide], the IC50 in series [1] fell in the range of 100 to 1000 nM; in series [2], 100 to 1000 nM; in series [3], 10 to 100 nM.
Regarding `O=C1COc2cc(CC(=O)NC(c3ccccc3)c3ccccc3N3CCCC3)ccc2N1` (stereo not drawn) [Cpd. 5, 2-(3-oxo-3,4-dihydro-2H-1,4-benzoxazin-7-yl)-N-{phenyl[2-(pyrrolidin-1-yl)phenyl]methyl}acetamide], the half-maximal inhibitory concentration (IC50) was 1000 to 10000 nM in series [1], > 10000 nM in series [2] and 10 to 100 nM in series [3].
For `Cc1ccc(C(NC(=O)Cc2ccc3[nH]c(=O)cc(C)c3c2)c2ccccc2)c(N2CCCCC2)c1` (stereo not drawn) [Cpd. 11, N-{[4-methyl-2-(piperidin-1-yl)phenyl](phenyl)methyl}-2-(4-methyl-2-oxo-1,2-dihydroquinolin-6-yl)acetamide], the half-inhibitory concentration (IC50) in series [1] was in the range of 1000 to 10000 nM; in series [2], 1000 to 10000 nM; in series [3], 100 to 1000 nM.
Turning to `Cc1ccc(C(NC(=O)Cc2ccc3c(c2)CC(=O)N3)c2ccccc2)c(N2CCCCC2)c1` (stereo not drawn) [Cpd. 16, N-{[4-methyl-2-(piperidin-1-yl)phenyl](phenyl)methyl}-2-(2-oxo-2,3-dihydro-1H-indol-5-yl)acetamide], the IC50 is 100 to 1000 nM and 10 to 100 nM in series [1]; 100 to 1000 nM in series [2]; 10 to 100 nM in series [3].
For `Cc1ccc(C(NC(=O)Cc2ccc3c(c2)C(=O)C(=O)N3)c2ccc(C)o2)c(N2CCCCC2)c1` (stereo not drawn) [Cpd. 23, 2-(2,3-dioxo-2,3-dihydro-1H-indol-5-yl)-N-{[4-methyl-2-(piperidin-1-yl)phenyl](5-methylfuran-2-yl)methyl}acetamide], the IC50 in series [1], in series [2] and in series [3] was 100 to 1000 nM in each case.
`Cc1ccc(C(NC(=O)Cc2ccc3c(c2)OC(C)(C)C(=O)N3)c2ccc(C)o2)c(N2CCCCC2)c1` (stereo not drawn) [Cpd. 25, 2-(2,2-dimethyl-3-oxo-3,4-dihydro-2H-1,4-benzoxazin-7-yl)-N-{[4-methyl-2-(piperidin-1-yl)phenyl](5-methylfuran-2-yl)methyl}acetamide]: the IC50 in series [1] lay within 100 to 1000 nM; in series [2], 1000 to 10000 nM; in series [3] it was 100 to 1000 nM.
Take `Cc1ccc(C(NC(=O)Cc2ccc3c(c2)CS(=O)(=O)N3)c2ccc(C)o2)c(N2CCCCC2)c1` (stereo not drawn) [Cpd. 27, 2-(2,2-dioxo-1,3-dihydro-2,1-benzothiazol-5-yl)-N-{[4-methyl-2-(piperidin-1-yl)phenyl](5-methylfuran-2-yl)methyl}acetamide]: the results for the IC50 in series [1], in series [2] and in series [3] were 10 to 100 nM, 100 to 1000 nM and < 10 nM, respectively.
Take `Cc1ccc(C(NC(=O)Cc2ccc3c(c2)C(=Cc2cnc(N)s2)C(=O)N3)c2ccc(C)o2)c(N2CCCCC2)c1` (stereo not drawn) [Cpd. 44, 2-{3-[(2-amino-1,3-thiazol-5-yl)methylidene]-2-oxo-2,3-dihydro-1H-indol-5-yl}-N-{[4-methyl-2-(piperidin-1-yl)phenyl](5-methylfuran-2-yl)methyl}acetamide]: the values for the IC50 in series [1], in series [2] and in series [3] were 100 to 1000 nM, 1000 to 10000 nM and 100 to 1000 nM, respectively.
For `Cc1ccc(C(NC(=O)Cc2ccc3c(c2)CCC3O)c2ccc(C)o2)c(N2CCCCC2)c1` (stereo not drawn) [Cpd. 52, 2-(1-hydroxy-2,3-dihydro-1H-inden-5-yl)-N-{[4-methyl-2-(piperidin-1-yl)phenyl](5-methylfuran-2-yl)methyl}acetamide], the IC50 was 10 to 100 nM in series [1], 100 to 1000 nM in series [2] and < 10 nM in series [3].
For the molecule `Cc1ccc(C(NC(=O)Cc2ccc3c(c2)C(O)C(=O)N3C)c2ccc(C)o2)c(N2CCCCC2)c1` (stereo not drawn) [Cpd. 53, 2-(3-hydroxy-1-methyl-2-oxo-2,3-dihydro-1H-indol-5-yl)-N-{[4-methyl-2-(piperidin-1-yl)phenyl](5-methylfuran-2-yl)methyl}acetamide], the IC50 was 10 to 100 nM in series [1], 100 to 1000 nM in series [2] and < 10 nM in series [3].
Turning to `Cc1ccc(C(NC(=O)C2(c3ccc4c(c3)OCC(=O)N4)CC2)c2ccc(C)o2)c(C)c1` (stereo not drawn) [Cpd. 59, N-[(2,4-dimethylphenyl)(5-methylfuran-2-yl)methyl]-1-(3-oxo-3,4-dihydro-2H-1,4-benzoxazin-7-yl)cyclopropane-1-carboxamide], the half-inhibitory concentration (IC50) in series [1] is < 10 nM; in series [2], < 100 nM; in series [3], < 10 nM.
With `Cc1ccc(C(NC(=O)C2(c3ccc4[nH]cc(CCO)c4c3)CC2)c2ccc(C)o2)c(C)c1` (stereo not drawn) [Cpd. 60, N-[(2,4-dimethylphenyl)(5-methylfuran-2-yl)methyl]-1-[3-(2-hydroxyethyl)-1H-indol-5-yl]cyclopropane-1-carboxamide], the IC50 is < 10 nM in series [1], < 100 nM in series [2] and < 10 nM in series [3].
The molecule `Cc1ccc(C(NC(=O)Cc2ccc3c(ccn3CCC(=O)O)c2)c2ccc(C)o2)c(C)c1` (stereo not drawn) [Cpd. 101, 3-[5-({[(2,4-dimethylphenyl)(5-methylfuran-2-yl)methyl]carbamoyl}methyl)-1H-indol-1-yl]propanoic acid] displayed a melting point of 65 °C. In addition, the IC50 in series [1] lay in the range of 100 to 1000 nM. The same molecule displayed an IC50 in series [3] of 10 to 100 nM.
On to `Cc1ccc(C(NC(=O)Cc2ccc3c(ccn3CCC(=O)O)c2)c2ccc(C)o2)c(Br)c1` (stereo not drawn) [Cpd. 102, 3-[5-({[(2-bromo-4-methylphenyl)(5-methylfuran-2-yl)methyl]carbamoyl}methyl)-1H-indol-1-yl]propanoic acid], for which the melting point was determined as 70 °C. Besides, in series [1], the IC50 is 100 to 1000 nM. In series [3], this molecule registered an IC50 of 10 to 100 nM.
